Laboratory results published in article PMC6691761, “Potential multifunctional agents with anti-hepatoma and anti-inflammation properties by inhibiting NF-кB activation” (Journal of Enzyme Inhibition and Medicinal Chemistry, 2019).

How the values were obtained:
Type in all cases: cell-based
[1] = test system: human breast cancer cells (MCF-7); experiment: Cytotoxicity, MTT assay, MCF-7; conditions: for IC50: MTT, 24 h; for MCF-7 SI (selectivity index): quotient of IC50 towards LO2 cells
Source text: (§1) Compounds 83–102 were screened against human neoplastic cell lines, such as human breast cancer cells (MCF-7), human colon cancer cells (HCT116), human lung carcinoma cells (A549), human gastric adenocarcinoma cells (SGC7901), human liver hepatocellular carcinoma cell line (HepG2), human cervical carcinoma cells (HeLa), human acute mononuclear granulocyte leukaemia (THP-1), and human normal hepatic cell line (LO2) using modified MTT assay. All the cells were obtained from the American Type Culture Collection (ATCC, Manassas, VA). The cells were cultured in DMEM or 1640. Positive controls (Doxorubicin (DOX) and Curcumin) and BAPs were initially dissolved in dimethyl sulphoxide (DMSO). Experimental concentration of DMSO was always 0.1% (v/v). The concentrations of BAPs and positive controls were 50, 20, 10, 5, 2.5, 1, 0.5, 0.1, 0.05, and 0.01 μg/mL.
(§2) The cells (1 × 10^4 cells/well) were seeded in a 96-well plate and incubated for 24 h. Cells treated with serial concentrations of drugs were incubated for another 24 h. After the media removed, 20 μL of MTT (5 mg/mL) solution was added and incubated for 4 h at 37 °C. The MTT solution was removed and then 150 μL of DMSO was added. The optical density was measured with a multi-well plate reader (TECAN, Mӓnnedorf, Switzerland) at 570 nm. The results are expressed as a decrease in the cell viability (%) in comparison to untreated controls. The concentration of each compound was examined in triplicate, and the IC50 values are expressed in Table 1.

[2] = test system: human colon cancer cells (HCT116); experiment: Cytotoxicity, MTT assay, HCT116; conditions: for IC50: MTT, 24 h; for HCT116 SI (selectivity index): quotient of IC50 towards LO2 cells
Source text: as §1, §2

[3] = test system: human lung carcinoma cells (A549); experiment: Cytotoxicity, MTT assay, A549; conditions: for IC50: MTT, 24 h; for A549 SI (selectivity index): quotient of IC50 towards LO2 cells
Source text: as §1, §2

[4] = test system: human gastric adenocarcinoma cells (SGC7901); experiment: Cytotoxicity, MTT assay, SGC7901; conditions: for IC50: MTT, 24 h; for SGC7901 SI (selectivity index): quotient of IC50 towards LO2 cells
Source text: as §1, §2

[5] = test system: human liver hepatocellular carcinoma cell line (HepG2); experiment: Cytotoxicity, MTT assay, HepG2; conditions: for IC50: MTT, 24 h; for HepG2 SI (selectivity index): quotient of IC50 towards LO2 cells
Source text: as §1, §2

[6] = test system: human cervical carcinoma cells (HeLa); experiment: Cytotoxicity, MTT assay, HeLa; conditions: for IC50: MTT, 24 h; for HeLa SI (selectivity index): quotient of IC50 towards LO2 cells
Source text: as §1, §2

[7] = test system: human acute mononuclear granulocyte leukaemia (THP-1); experiment: Cytotoxicity, MTT assay, THP-1; conditions: for IC50: MTT, 24 h; for THP-1 SI (selectivity index): quotient of IC50 towards LO2 cells
Source text: as §1, §2

[8] = test system: human normal hepatic cell line (LO2); experiment: Toxicity to normal cells, MTT assay, LO2; conditions: 24 h
Source text: as §1, §2

SMILES	IC50 [1]	MCF-7 SI (selectivity index) [1]	IC50 [2]	HCT116 SI (selectivity index) [2]	IC50 [3]	A549 SI (selectivity index) [3]	IC50 [4]	SGC7901 SI (selectivity index) [4]	IC50 [5]	HepG2 SI (selectivity index) [5]	IC50 [6]	HeLa SI (selectivity index) [6]	IC50 [7]	THP-1 SI (selectivity index) [7]	IC50 [8]
CN1C/C(=C\c2cccc([N+](=O)[O-])c2)C(=O)/C(=C/c2ccc(F)cc2F)C1 [Compound 84]	8.5 ± 0.2 µM	2.3	9.5 ± 0.1 µM	2.0	6.2 ± 0.3 µM	3.1	7.6 ± 0.8 µM	2.5	8.2 ± 0.3 µM	2.4	10.2 ± 0.2 µM	1.9	11.8 ± 0.2 µM	1.6	19.3 ± 0.3 µM
COc1ccc(C=Nc2cccc(C=C3CN(C)CC(=Cc4ccccc4F)C3=O)c2)c(O)c1 [Compound 101]	4.7 ± 0.2 µM	3.0	4.9 ± 0.1 µM	2.8	3.5 ± 0.2 µM	4.0	10.8 ± 0.1 µM	1.3	4.8 ± 0.1 µM	2.9	8.9 ± 0.2 µM	1.6	3.5 ± 0.2 µM	4.0	13.9 ± 0.3 µM
CN1CC(=Cc2cccc(N=Cc3ccc(Cl)cc3)c2)C(=O)C(=Cc2ccccc2F)C1 [Compound 94]	6.5 ± 0.1 µM	2.8	6.3 ± 0.1 µM	2.9	5.9 ± 0.3 µM	3.1	6.4 ± 0.1 µM	2.8	4.8 ± 0.1 µM	3.8	11.1 ± 0.3 µM	1.6	4 ± 0.1 µM	4.5	18 ± 0.3 µM
COc1cc(Br)c(O)c(C=Nc2cccc(C=C3CN(C)CC(=Cc4ccccc4F)C3=O)c2)c1 [Compound 102]	15.5 ± 1.2 µM	1.0	18.1 ± 1.9 µM	0.8	13.4 ± 0.7 µM	1.1	7 ± 0.4 µM	2.1	5.9 ± 0.1 µM	2.5	9.1 ± 0.2 µM	1.6	5 ± 0.2 µM	3.0	14.8 ± 0.1 µM
CN1CC(=Cc2cccc(N=Cc3cc(O)ccc3O)c2)C(=O)C(=Cc2ccccc2F)C1 [Compound 99]	5.9 ± 0.2 µM	2.6	7.42 ± 0.1 µM	2.1	4.4 ± 0.1 µM	3.5	4.7 ± 0.3 µM	3.3	8.2 ± 0.1 µM	1.9	15.3 ± 1.1 µM	1.0	7.8 ± 0.4 µM	2.0	15.6 ± 0.4 µM
COc1ccccc1/C=C1\CN(C)C/C(=C\c2cc(OC)c(OC)c(OC)c2)C1=O [Compound 89]	9.7 ± 0.4 µM	1.4	5.6 ± 0.1 µM	2.4	4.9 ± 0.1 µM	2.8	3.3 ± 0.3 µM	4.1	4.3 ± 0.1 µM	3.2	5.3 ± 0.4 µM	2.6	7.9 ± 0.3 µM	1.7	13.6 ± 0.1 µM
CN1C/C(=C\c2cccc([N+](=O)[O-])c2)C(=O)/C(=C/c2cc(F)ccc2F)C1 [Compound 86]	11.1 ± 0.7 µM	1.9	10.5 ± 0.9 µM	2.0	9.3 ± 0.4 µM	2.3	20.5 ± 0.5 µM	1.0	9.2 ± 0.4 µM	2.3	11.5 ± 0.8 µM	1.9	7 ± 0.2 µM	3.0	21.3 ± 0.4 µM
